Results: US6469142B1, “Human N-methyl-D-aspartate receptor subunits, nucleic acids encoding same and uses therefor” (Merck & Co., Inc., priority 1993, dated 2002)

What was measured:
[1] = target: T1, human NMDAR1A + NMDAR2A + NMDAR2C (Homo sapiens, UniProt Q05586+Q12879+Q14957); test: cell-based
T1 construct: other: 50 ng each transcript; co-applied with 100 μM NMDA; mean±S.D. of
Method: (§1) Xenopus oocytes were injected with in vitro transcripts prepared from constructs containing DNA encoding human NMDA receptor NMDAR1 and NMDAR2 subunits. Electrophysiological measurements of the oocyte transmembrane currents were made using the two-electrode voltage clamp technique (see e.g., Stuhmer (1992) Meth. Enzymol. 207:319-339).
(§2) Recombinant capped transcripts of NMDA receptor subunit cDNAs contained in constructs NMDAR1A, NMDAR1-I63, NMDAR1-I63-Δ204, NMDAR1-Δ1087, NMDAR1-Δ363, and pCMV-26-NotI-24 were synthesized from linearized plasmids using the mCAP RNA Capping Kit (Cat. #200350, Stratagene, Inc., La Jolla, Calif.). For experiments in which NMDAR2A or NMDAR2B and NMDAR1 or NMDAR1-I63 transcripts were co-injected into Xenopus oocytes, the transcripts were synthesized from linearized constructs NMDAR1A, NMDAR1-I63, pCMV-hNMDAR2A-3(53), pCMV-26-NotI-24 and pBS-hNMDAR2B using mMessage mMachine (Ambion, catalog #1344, Austin, Tex.). The mass of each synthesized transcript was determined by UV absorbance and the integrity of each transcript was determined by electrophoresis through an agarose gel.
(§3) Xenopus oocytes were injected with 12.5-50 ng of one or more NMDA receptor subunit transcripts per oocyte. The preparation and injection of oocytes were carried out as described by Dascal [(1987) Crit. Rev. Biochem. 22:317-387]. […]

[2] = target: T2, human NMDAR1A + NMDAR2A (Homo sapiens, UniProt Q05586+Q12879); test: Two-electrode voltage clamp of Xenopus oocytes co-injected with NMDAR1A and pCMV-hNMDAR2A-3(53) transcripts; type: cell-based
T2 construct: to generate the full-length construct NMDAR1A; Full-length DNAs encoding human NMDA receptor subunits have been inserted into vectors pcDNA1, pMMTVT7(+), pCMV-T7-2 and pCMV-T7-3; expressed in transfected cells; host or cells: Xenopus oocytes co-injected with in vitro transcripts
Method: as §1, §2, §3

[3] = test system: recombinant human NMDA receptors; test: Antagonist block of agonist-induced currents in oocytes injected with NMDA receptor subunit transcripts (summary of Table 1); type: cell-based; details: 0.1-1.0 mM MgCl2 or 1 μM MK801
Method: as §1
Xenopus oocytes were injected with 12.5-50 ng of one or more NMDA receptor subunit transcripts per oocyte. The preparation and injection of oocytes were carried out as described by Dascal [(1987) Crit. Rev. Biochem. 22:317-387]. Two-to-six days following mRNA injection, the oocytes were examined using the two-electrode voltage clamp technique. The cells were bathed in Ringer's solution (115 mM NaCl, 2.5 mM KCl, 1.8 mM CaCl2, 10 mM HEPES, pH 7.3), and the membrane potential was clamped at −80 to −100 mV. Drugs were applied by pipetting 6.0 μl aliquots of drug-containing solution directly into the bath, or by using gravity-feed into a Warner Instruments chamber (volume=110 μl) at a flow rate of 8 ml/min. The data were sampled at 2-5 Hz with a Labmaster data acquisition board in a PC-386 using AXOTAPE version 1.2 (Axon Instruments, Foster City, Calif.) software. The data were exported to a laser printer or plotted using Sigmaplot version 5.0. […]

[4] = target: NMDA receptors; test: [3H]-CGP39653 binding to rat buffy coat homogenate; details: 150 μg rat buffy coat homogenate; 60 min at 4° C.; read-out: Kd (Scatchard analysis, single class of binding sites)
Method: 21:161]. […] The wash step is repeated once more. The final suspension is divided into aliquots, centrifuged.
The binding of [^3H]-CGP39653 to rat brain membranes is carried out as described by Sills et al. [(1991) Eur. J. Pharmacol. 192:19]. The buffy coat membrane pellet is resuspended in 50 volumes of 5 mM Tris-HCl containing 10 mM EDTA, pH 7.7, and incubated for 10 min. at 37° C. The supernatant is centrifuged at 48,000×g for 10 min. at 4° C. The wash step is repeated once and the pellet is resuspended in 10 ml of 5 mM Tris-HCl containing 10 mM EDTA, pH 7.7. […] Unbound radioactivity is removed with two washes of 3 ml each of ice-cold buffer.
Saturation analysis of [^3H]-CGP39653 binding was carried out by incubating 150 μg of rat buffy coat homogenate with increasing concentrations of [^3H]-CGP39653 for 60 min at 4° C.

T2 sequence (Q12879 23-1464, other chains not shown): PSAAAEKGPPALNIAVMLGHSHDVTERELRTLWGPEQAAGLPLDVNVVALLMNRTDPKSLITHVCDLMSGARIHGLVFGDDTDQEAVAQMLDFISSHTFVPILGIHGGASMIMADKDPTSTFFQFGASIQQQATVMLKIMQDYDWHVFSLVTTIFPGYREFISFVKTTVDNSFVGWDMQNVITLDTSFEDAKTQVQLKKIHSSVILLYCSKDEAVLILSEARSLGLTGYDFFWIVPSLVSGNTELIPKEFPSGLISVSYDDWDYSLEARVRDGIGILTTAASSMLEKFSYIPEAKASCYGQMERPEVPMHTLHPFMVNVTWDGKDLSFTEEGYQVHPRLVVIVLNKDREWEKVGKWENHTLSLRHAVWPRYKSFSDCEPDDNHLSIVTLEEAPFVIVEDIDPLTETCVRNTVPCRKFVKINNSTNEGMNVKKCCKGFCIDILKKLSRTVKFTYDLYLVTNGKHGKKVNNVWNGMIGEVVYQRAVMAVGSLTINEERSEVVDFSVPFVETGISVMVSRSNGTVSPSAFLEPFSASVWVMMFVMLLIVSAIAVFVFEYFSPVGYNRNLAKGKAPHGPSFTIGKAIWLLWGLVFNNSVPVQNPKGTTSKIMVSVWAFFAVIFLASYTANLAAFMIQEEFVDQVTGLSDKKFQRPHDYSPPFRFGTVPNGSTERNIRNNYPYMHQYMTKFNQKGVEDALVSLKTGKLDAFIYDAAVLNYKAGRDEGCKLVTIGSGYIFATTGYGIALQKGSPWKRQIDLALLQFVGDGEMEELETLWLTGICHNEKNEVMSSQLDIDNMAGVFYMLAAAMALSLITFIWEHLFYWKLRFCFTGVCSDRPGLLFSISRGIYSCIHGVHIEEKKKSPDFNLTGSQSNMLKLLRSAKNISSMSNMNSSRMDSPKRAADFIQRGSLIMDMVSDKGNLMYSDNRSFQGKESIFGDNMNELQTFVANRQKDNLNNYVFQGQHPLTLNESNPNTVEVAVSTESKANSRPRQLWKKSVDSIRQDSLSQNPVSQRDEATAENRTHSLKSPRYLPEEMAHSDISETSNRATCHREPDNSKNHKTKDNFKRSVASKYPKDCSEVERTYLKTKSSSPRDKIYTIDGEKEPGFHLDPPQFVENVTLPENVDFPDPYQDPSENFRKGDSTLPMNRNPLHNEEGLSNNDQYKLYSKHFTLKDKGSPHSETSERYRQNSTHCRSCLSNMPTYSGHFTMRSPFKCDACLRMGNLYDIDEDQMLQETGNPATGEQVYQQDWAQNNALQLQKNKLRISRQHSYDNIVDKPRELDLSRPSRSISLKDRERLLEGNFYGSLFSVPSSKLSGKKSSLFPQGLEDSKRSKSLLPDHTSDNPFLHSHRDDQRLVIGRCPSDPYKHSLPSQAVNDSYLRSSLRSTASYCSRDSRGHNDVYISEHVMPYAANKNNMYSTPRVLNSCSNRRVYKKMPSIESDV

SMILES: NCC(=O)O [glycine]
- EC50 [1]: 870 ± 240 nM
- EC50 [2]: 1900 ± 260 nM

SMILES: [Cl-].[Cl-].[Mg+2] [MgCl2]
- Block of NMDA agonist-induced currents, in general [3]: blocked

SMILES: CCCC(=CC(N)C(=O)O)CP(=O)(O)O (centres unmarked) [[^3H]-CGP39653]
- Kd [4]: 12.3 ± 0.12 nM

SMILES: C[C@]12N[C@H](Cc3ccccc31)c1ccccc12 [MK801]
- Block of NMDA agonist-induced currents, in general [3]: blocked
